{"source": "paper PMC10002220", "about": "“In Vivo Reversal of P-Glycoprotein-Mediated Drug Resistance in a Breast Cancer Xenograft and in Leukemia Models Using a Novel, Potent, and Nontoxic Epicatechin EC31” (International Journal of Molecular Sciences, 2023)", "key": {"P-gp [1]": {"tested_on": "P-gp", "design": "method as in PMID 25985195, PMID 34597896", "conditions": "cited from earlier work"}, "P-gp [2]": {"target": "T1, P-gp (Homo sapiens, UniProt P08183)", "T1 sequence (P08183 whole entry)": "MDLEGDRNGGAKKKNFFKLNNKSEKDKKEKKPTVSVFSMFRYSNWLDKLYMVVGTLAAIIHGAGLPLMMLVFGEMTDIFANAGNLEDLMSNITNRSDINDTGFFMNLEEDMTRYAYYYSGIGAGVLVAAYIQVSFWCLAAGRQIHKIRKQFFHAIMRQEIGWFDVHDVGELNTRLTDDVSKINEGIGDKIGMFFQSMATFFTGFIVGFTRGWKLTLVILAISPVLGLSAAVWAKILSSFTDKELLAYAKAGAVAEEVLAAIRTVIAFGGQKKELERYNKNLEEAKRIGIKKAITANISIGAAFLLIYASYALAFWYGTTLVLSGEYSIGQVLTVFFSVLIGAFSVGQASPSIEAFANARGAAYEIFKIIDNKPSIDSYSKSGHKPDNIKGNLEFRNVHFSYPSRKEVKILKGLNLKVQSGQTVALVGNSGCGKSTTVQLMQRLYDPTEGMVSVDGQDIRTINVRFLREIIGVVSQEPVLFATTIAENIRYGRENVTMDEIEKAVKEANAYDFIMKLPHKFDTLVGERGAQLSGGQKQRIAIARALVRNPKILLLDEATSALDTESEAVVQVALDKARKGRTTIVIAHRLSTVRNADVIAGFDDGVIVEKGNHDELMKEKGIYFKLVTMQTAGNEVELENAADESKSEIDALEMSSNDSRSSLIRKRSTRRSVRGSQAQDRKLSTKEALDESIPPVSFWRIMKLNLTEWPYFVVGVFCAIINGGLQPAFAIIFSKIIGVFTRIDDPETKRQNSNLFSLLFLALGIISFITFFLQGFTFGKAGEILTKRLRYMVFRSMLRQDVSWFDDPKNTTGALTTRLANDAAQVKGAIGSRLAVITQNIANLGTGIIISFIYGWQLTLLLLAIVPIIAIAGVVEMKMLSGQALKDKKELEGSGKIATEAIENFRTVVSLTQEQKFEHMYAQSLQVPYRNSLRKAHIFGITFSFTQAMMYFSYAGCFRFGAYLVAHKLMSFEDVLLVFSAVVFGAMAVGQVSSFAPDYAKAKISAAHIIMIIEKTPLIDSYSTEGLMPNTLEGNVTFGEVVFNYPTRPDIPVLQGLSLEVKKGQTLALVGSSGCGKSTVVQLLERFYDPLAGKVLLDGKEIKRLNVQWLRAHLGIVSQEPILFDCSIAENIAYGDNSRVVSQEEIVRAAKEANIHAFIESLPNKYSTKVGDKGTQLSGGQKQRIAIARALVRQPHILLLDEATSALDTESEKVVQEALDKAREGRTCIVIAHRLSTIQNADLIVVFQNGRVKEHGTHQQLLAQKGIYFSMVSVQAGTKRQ", "assay": "EC50 for reversing drug resistance in LCC6MDR cells (cell proliferation assay)", "conditions": "for EC50: EC50 for Reversing MDR, LCC6MDR", "excerpt": "EC50 was defined as the concentration at which the modulator can reduce the IC50 of an anticancer drug by half in the P-gp-overexpressing cell lines. […] The P-gp-modulating activity of methylated catechin derivatives was further studied by measuring the EC50. […] Three P-gp-overexpressing cell lines were employed, including breast cancer cell line LCC6MDR, mouse leukemia cell line P388ADR, and human leukemia cell line K562/P-gp. The anticancer drugs tested included DOX, PTX, and VCR. All values were presented as mean ± standard error of mean. N = 3–6 independent experiments.\nAbout 6500 cells of LCC6MDR or 10,000 cells of P388ADR or K562/P-gp were seeded to each well of 96-well plate and were then incubated at 37 °C overnight. […] Cell viability was determined using CellTiter 96 AQueous Assay (Promega, Madison, WI, USA, #G1111) as reported previously [38]. The % of cell survival, IC50 of anticancer drugs towards the cell line, and EC50 of modulators were analyzed using nonlinear regression in Prism 5.0."}, "P-gp [3]": {"target": "T1, P-gp", "assay": "Vanadate-sensitive P-gp ATPase activity assay (P-gp-Glo)", "conditions": "70 µM", "description": "(A) Effect of EC31 on vanadate-sensitive P-gp ATPase was studied. EC31, C25, and EGCG at different concentrations (10, 50, and 70 µM) were incubated with recombinant human P-gp microsomes and MgATP with or without sodium vanadate. After stopping the reaction, the remaining ATP level was determined by measuring the luciferase-generated luminescent signal. Vanadate-inhibitable P-gp ATPase activity was determined by calculating the luminescence signal in the samples with or without sodium vanadate. […] P-gp ATPase activity caused by compounds was normalized to basal P-gp ATPase activity (human P-gp microsome treated with DMSO) and was presented as fold change. A dashed line at 1.0-fold change represented the basal P-gp ATPase activity. […] The values in this figure were presented as mean ± standard error of mean. N = 3 independent experiments.\nP-gp ATPase activity was measured with P-gp-Glo assay system (Promega, #V3601) with human P-gp membrane vesicles as reported previously [32]. […] The reaction was initiated by adding MgATP and was then incubated at 37 °C for 1 h. […] The remaining ATP signal of luminescence was measured with a Clariostar microplate reader (BMG Labtech, Ortenberg, Germany). Vanadate-inhibitable P-gp ATPase activity was determined by calculating the luminescence signal in the samples with or without sodium vanadate."}}, "data": [{"compound": "COc1cc(OC)c2c(c1)O[C@H](c1ccc(OC)c(OC)c1)[C@H](OC(=O)c1ccc(F)c(NC(=O)c3cc(OC)c(OC)c(OC)c3)c1)C2", "note": "[EC31]", "values": [{"measurement": "effect on plasma membrane level of P-gp", "setting": "P-gp [1]", "result": "did not affect"}, {"measurement": "EC50", "setting": "P-gp [2]; DOX Resistance, concentration that reduces IC50 of DOX by half", "result": "159 ± 21", "unit": "nM"}, {"measurement": "EC50", "setting": "P-gp [2]; PTX Resistance, concentration that reduces IC50 of PTX by half", "result": "94 ± 21", "unit": "nM"}, {"measurement": "fold lower EC50 than that of verapamil", "setting": "P-gp [2]; reversing PTX resistance in LCC6MDR", "result": "about 4.7 fold"}, {"measurement": "P-gp ATPase activity, fold change relative to basal", "setting": "P-gp [3]", "result": "≤ 2.1", "unit": "fold"}]}]}
